Like-named read-outs stand apart in the source and are kept apart here.
What was measured:
[1] = system: LPS-induced lung neutrophilia; test: Neutrophilia induced by LPS aerosol in the C57 bl/6 mouse; assay type: in vivo; conditions: oral route, 1 h before LPS aerosol 100 μg/ml; bronchoalveolar washings 24 h after exposure
Description: (§1) The model retained to assess the usefulness of the compounds of the invention for the treatment of COPD was a neutrophilia model. Neutrophilia was induced by exposure of rats or mice to a lipopolysaccharide (LPS) aerosol.
The animals were treated with compound 1 when conscious, that was by the oral route.
One hour after treatment, the mice were placed in a plexiglass box (at most 25 mice to a box) and were given a 100 μg/ml aerosol of LPS (Escherichia coli, serotype O55:B5) for 1 hour. Control mice were not given the LPS aerosol.
Twenty-four hours after the exposure to the LPS, the animals were then anaesthetised by an intraperitoneal injection of 0.6% sodium pentobarbital at a rate of 15 ml/kg. A tracheotomy was carried out and a tracheal cannula was inserted. […]
The cells contained in the bronchoalveolar washing fluid were counted using a Coulter particle counter. […]
The arithmetic mean and the standard deviation (SD) of the number of neutrophils in the bronchoalveolar washing fluids were calculated for each treatment group. The percentage inhibition was calculated in the following manner: [formula] […]
The 90% confidence interval for the percentage inhibition was to be calculated by the “Delta method” or “Fieller method” ^i, ii & iii (Armitage & al, 1998; Feuerstein & al, 1997; Hubert & al, 1988) if appropriate.

[2] = system: LPS-induced lung neutrophilia; test: Neutrophilia induced by LPS aerosol in the Wistar rat; assay type: in vivo; conditions: Wistar rats, oral
Description: as §1
The animals were treated with compound 1 or cilomilast when conscious, that was by the oral route.
One hour after the treatment, the rats were placed in a plexiglass box and were given a 200 μg/ml aerosol of LPS (Escherichia coli, serotype O55:B5) for 1 hour. Control rats were not given the LPS aerosol. This control is called ‘sham’ in FIGS. 1 and 2.
Two hours after the exposure to the LPS, the animals were then anaesthetised by intraperitoneal injection of 6% sodium pentobarbital at a rate of 1 ml/kg. A tracheotomy was carried out and a tracheal cannula was inserted.
Using a 5-ml syringe, 3 consecutive washings were carried out with a 5-ml volume of a […] NaCl+EDTA solution (37° C.), in order to recover the cell population present in the lumen of the airways. The fluid which had thus been withdrawn was stored at +4° C. on ice.

[3] = system: LPS-induced TNFα release in whole blood; test: Inhibition of in vitro LPS-induced TNFα production in whole blood of COPD patients; assay type: cell-based; conditions: Homo sapiens; whole blood of COPD patients (n=7), LPS 50 μg/ml, 22-24 h at 37° C., ELISA
Source text: The aim of this study was to compare the in vitro activities of three selective PDE4 inhibitors (compound 1, rolipram which is 4-[3-(cyclopentyloxy)-4-methoxy-phenyl]-2-pyrrolidinone, and cilomilast) at reducing lipopolysaccharide (LPS)-induced TNFα release in whole blood of COPD patients. Thirteen COPD patients, diagnosed according to the ATS guidelines^iv, were included in this study to determine the concentration-effect of LPS on TNF^α production (n=6) and the IC50 values of compound 1, rolipram and cilomilast (n=7).
Blood (15 ml/patient) was collected in heparin tubes and distributed in 96-well microplates (250 μl/well).
After a 30-min incubation at 37° C., 25 μl of increasing concentrations of the compound to test or vehicle were added in different wells. The microplates were incubated at 37° C. for 30 min, and then 25 μl of LPS (E. coli) at 50 μg/ml (stimulated wells) or 25 μl of sterile saline (unstimulated wells) were added. The microplates were incubated 22-24 h at 37° C.
125 μl of the supernatant plasma were transferred gently in sterile 96-well microplates and stored at −80° C. until TNFα assay. The TNFα production was then measured by an ELISA assay.

[4] = Half-life in humans after single oral doses to healthy volunteers; conditions: human, in vivo, single oral doses 1 to 25 mg
Source text: Such values indicate that compound 1 may be administered once daily.

[5] = single dose of 20 mg; Murdoch et al. 1998; cited from earlier work
[6] = in humans; Torphy et al. 1999; cited from earlier work

## Nc1cc2c3c(c1)C(c1ccccc1)=N[C@@H](NC(=O)c1cccnc1)C(=O)N3CC2 [compound 1, (3R)N-(9-amino-4-oxo-1-phenyl-3,4,6,7-tetrahydro-[1,4]diazepino[6,7,1-hi]indol-3-yl)-nicotinamide]
[1]
  inhibition of the LPS-induced lung neutrophilia in mice: strongly inhibited
[2]; 10 mg/kg
  efficiency relative to cilomilast at the same dose: twice more efficient than cilomilast
  percentage of inhibition of the LPS-induced lung neutrophilia: 74%
[2]; 30 mg/kg
  percentage of inhibition of the LPS-induced lung neutrophilia: 80%
[3]
  IC50: 1.3 ± 0.7 µM
[4]; read-out: mean terminal half-life values, range over doses
  half-life: 13.9 to 17.1 h
[4]; read-out: terminal half-life, mean over all doses (converted)
  half-life: 15.4 h

## COc1ccc([C@]2(C#N)CC[C@@H](C(=O)O)CC2)cc1OC1CCCC1 [cilomilast, cis-4-cyano-4-[3-(cyclopentyloxy)-4-methoxyphenyl]cyclohexane carboxylic acid]
[5]
  side effects: relevant side effects such as nausea and vomiting occurred
[2]; 30 mg/kg
  percentage of inhibition of the LPS-induced lung neutrophilia: 74%
[3]
  IC50: > 10 µM
[6]
  elimination half-life: approximately 8 hours

## COc1ccc(C2CNC(=O)C2)cc1OC1CCCC1 (stereo not drawn) [rolipram, 4-[3-(cyclopentyloxy)-4-methoxy-phenyl]-2-pyrrolidinone]
[3]
  IC50: 2.8 ± 0.9 µM

Source: patent US6544983B2, “Diazepinoindoles for the treatment of chronic obstructive pulmonary disease” (Pfizer Inc, priority 2000, dated 2003)
